Data reported in patent US10722575B2, “Use of 1,3-diphenylprop-2-en-1-one derivatives for treating liver disorders” (GENFIT, priority 2009, dated 2020).

What was measured:
[1] = system: patients suffering from impaired fasting glucose, impaired glucose tolerance and abdominal obesity; assay: Second pilot double-blind placebo-controlled randomized study, Cpd 29 80 mg/day, 28 days; format: in vivo, human; conditions: 80 mg/day oral
Method: 1-[4-methylthiophenyl]-3-[3,5-dimethyl-4-carboxydimethylmethyloxyphenyl]prop-2-en-1-one (Cpd 29 of WO 2004/005233) has been formulated as hard shell capsules containing 5, 10 or 20 mg of the compound. The compound (80 mg) was administered orally once daily for 28 days. The study has been performed in two parallel groups in double-blind conditions: placebo or Cpd 29 of WO 2004/005233.
The tolerability and safety of once-a-day administrations, as well as the efficacy in improving plasma lipids and glucose homeostasis compared with placebo, were evaluated in two pilot trials using relevant biochemical parameters. The data were used to calculate the percentage of change due to the compound when compared to the placebo after 28 days of treatment.
A second pilot, double-blind, placebo controlled, randomized study has been performed in patients suffering from impaired fasting glucose, impaired glucose tolerance and abdominal obesity for assessing the tolerability and safety of once-a-day administrations of oral doses of Cpd 29 of WO 2004/005233 (at the dose of 80 mg/day), as well as the efficacy on glucose and lipid metabolism.

ob/ob mice [2] = assay: ob/ob mice, hepatic gene expression by quantitative RT-PCR after 26 days of treatment; format: in vivo; conditions: 26 days daily gavage, Cpd 29 10 and 30 mg/kg/day, Fenofibrate 100 mg/kg/day, Rosiglitazone 10 mg/kg/day
Method: The compounds of the General Formula (I) were tested in a murine model of type II diabetes, the ob/ob mice. Mice were daily orally treated with the Compound 29 of WO 2004/005233 at two different doses (10 and 30 mg/kg/day) and with the prototypical PPARalpha- and PPARgamma-specific reference compounds (Fenofibrate at 100 mg/kg/day and Rosiglitazone at 10 mg/kg/day respectively). After 26 days of treatment, animals were sacrificed and plasma samples and livers were harvested. Hepatic expression of genes that are known to be implicated in the liver inflammation process was evaluated and plasmatic levels of ALAT were measured (Panels A-C). […]
Male ob/ob mice (8 weeks of age) were purchased from Charles River (L'Arbresle, France) and were kept on a 12-hour light/dark cycle at a constant temperature of 20±3° C. After a 1 week acclimation, mice were separated in groups of 8 animals selected such that the distribution of their body weight and their 6 hours fasting glycemia determined before the experiment were uniform. […]
Total RNA was isolated from frozen livers using the NucleoSpin® 96 RNA kit (Macherey Nagel), according to the manufacturer's instructions. […] Quantitative PCR was then carried out using the MyiQ Single-Color Real-Time PCR Detection System (Biorad). […]

ob/ob mice [3] = assay: ob/ob mice, plasma ALAT after 26 days of treatment; format: in vivo; conditions: 26 days daily gavage; Cpd 29 30 mg/kg/day, Rosiglitazone 10 mg/kg/day; FIG. 2C
Method: The compounds of the General Formula (I) were tested in a murine model of type II diabetes, the ob/ob mice. […] After 26 days of treatment, animals were sacrificed and plasma samples and livers were harvested. Hepatic expression of genes that are known to be implicated in the liver inflammation process was evaluated and plasmatic levels of ALAT were measured (Panels A-C). Statistical analysis was performed using unpaired T-test with three p values that defines statistical relevance (* means p<0.05; ** means p<0.01; *** means p<0.001).
Male ob/ob mice (8 weeks of age) were purchased from Charles River (L'Arbresle, France) and were kept on a 12-hour light/dark cycle at a constant temperature of 20±3° C. After a 1 week acclimation, mice were separated in groups of 8 animals selected such that the distribution of their body weight and their 6 hours fasting glycemia determined before the experiment were uniform. Animals were fed a standard chow diet (R03, SAFE) and treated during 26 days with the compounds of interest. […] Control animals were treated with vehicle only (Carboxymethlycellulose 1%+Tween-80 0.1%). Animals had access to food and water ad libitum.
At the end of the studies, the animals were weighed and sacrificed under anesthesia. […]

hApoE2 KI mice = hApoE2 KI mice on Western diet, 12 weeks, hepatic gene expression by quantitative RT-PCR; format: in vivo; conditions: 12 weeks in Western diet, Cpd 29 0.3 mg/kg/day
Method: The compounds of the General Formula (I) were tested in vivo in a high fat diet mice model. Dyslipidemic “humanized” ApoE2 knock-in mice (hApoE2 KI) were fed a Western diet and treated during 12 weeks. The compounds of interest, including the Compound 29 of WO 2004/005233 at 0.3 mg/kg/day and the Fenofibrate at 100 mg/kg/day (used as a reference compound) were incorporated into the diet. At the end of the protocol, animals were sacrificed, livers were harvested and the hepatic expression of genes that are known to be implicated in the liver inflammation and the fibrosis processes were evaluated by quantitative RT-PCR (Panels A-D). Statistical analysis was performed as indicated for FIG. 1.
Female hApoE2 knock-in (KI) transgenic mice (Sullivan et al., 1998)(4 weeks of age). Mice were kept on a 12-hour light/dark cycle at a constant temperature of 20±3° C. After a 1 week acclimation, mice were separated in groups of 7-10 animals selected such as the distribution of their body weight and plasmatic lipid levels determined before the experiment were uniform. Animals were fed a Western diet (20% saturated fat and 0.2% cholesterol, Harlan Teklad TD88137) at weaning and during 12 weeks. Compounds of interest (Cpd 29 at 0.3 mg/kg/day and Fenofibrate at 100 mg/kg/day) were incorporated in the Western diet (SAFE, Augy, France) and administrated to mice during 12 weeks. Control animals received Western diet only. Animals had access to food and water ad libitum.
At the end of the studies, the animals were weighed and sacrificed under anesthesia. Blood was collected from the retro-orbital sinus; plasma was obtained by centrifugation (4 000 rpm, at 4° C. for 15 min) and subsequently frozen and stored at −20° C. Tissues and livers were isolated and snap-frozen in liquid nitrogen and stored at −80° C. for subsequent analysis (gene expression and biochemistry) or fixed in 4% paraformaldehyde for histology.
Total RNA was isolated from frozen livers using the NucleoSpin® 96 RNA kit (Macherey Nagel), according to the manufacturer's instructions. Reverse transcription was performed on 1 μg of total RNA by action of 1 μl of MMLV-RT enzyme (Invitrogen) during 1 hour at 37° C. in a total volume of 30 μl. […] Quantitative PCR was then carried out using the MyiQ Single-Color Real-Time PCR Detection System (Biorad). […]
The quantity of fluorescence emitted is directly proportional to the quantity of complementary DNA present at the start of the reaction and amplified during the PCR. The relative levels of expression were determined using the standard curve for each transcript. […] The induction factor, i.e. the ratio between the relative signal induced by the compound according to the invention and the average of the values relating to the control group, was then calculated for each sample. […]

What does the source list for “1-[4-methylthiophenyl]-3-[3,5-dimethyl-4-carboxydimethylmethyloxyphenyl]prop-2-en-1-one [Cpd 29]”?
LDL-C [1]: reduced; plasma triglycerides, change relative to placebo ([1]; p<0.001): −25%; HDL-C, change relative to placebo ([1]; p<0.01): +9%; fasting insulinemia, change relative to placebo ([1]; p<0.01): −25%; insulin resistance index, HOMA-IR, change relative to placebo ([1]; p<0.01): −31%; liver acute phase inflammation marker haptoglobin ([1]; p<0.01): reduction; reduction of Gamma Glutamyl transpeptidase level ([1]; p<0.01): 15%; fasting plasma glucose, change relative to placebo ([1]; p<0.05): −5%; hepatic expression of TNFalpha (ob/ob mice [2]; FIG. 2A): inhibited the expression of this cytokine in a dose-response manner; hepatic expression level of TGFbeta (ob/ob mice [2]; FIG. 2B): inhibited the expression of this growth factor in a dose-response manner; plasmatic levels of ALAT (ob/ob mice [3]): statistically significant decrease; hepatic expression of Col1a1 (collagen genes) (hApoE2 KI mice; Fenofibrate 100 mg/kg/day, FIG. 3D): statistically significant inhibition; hepatic expression of TNFα (hApoE2 KI mice; FIG. 3A): inhibited; hepatic expression of CCL5 (hApoE2 KI mice; FIG. 3B): inhibited; hepatic expression of TGFβ (hApoE2 KI mice; FIG. 3C): inhibited
